Laboratory results as given in patent US9205071B2, “Arsenic compounds, their preparation methods and uses thereof” (Changzhou Hi-Tech District Multiple Dimension Industry …, priority 2009, dated 2015).

Tests used:
HL-60 cells [1] = assay: Cell proliferation test (MTT method); type: cell-based; conditions: HL-60 cell proliferation, 48 h
Protocol: Tested drugs with different concentrations were added, and repeated four wells for each drug concentration group, then continued to culture in a CO2 incubator. Cell proliferation was detected by MTT method 48 h after culture. 15 ul MTT (5 mg/ml) was added in each well, and continued to culture for 4 h. Suspension in the well was collected, centrifuged, and supernatant was discarded. 100 ul of DMSO was added into each well to completely dissolve formazan particles. The solution was sucked into the original well, the absorbance at 492 nm was detected by ELISA, and the inhibiting rate was calculated according to the formula CI=(1-A test group /A control group)×100%.

HL-60 cells [2] = assay: Cell viability test (Trypan blue, live cell rate)

## O=[As]([O-])([O-])[O-].[Na+].[Na+].[Na+] [Na3AsO4]
HL-60 cells [1]; 7.5 uM
  Inhibiting rate: 2.5%
HL-60 cells [1]; 15 uM
  Inhibiting rate: 7.9%
HL-60 cells [1]; 30 uM
  Inhibiting rate: 13.9%
HL-60 cells [1]; 60 uM
  Inhibiting rate: 24.5%
HL-60 cells [2]; 7.5 uM
  live cell rate at 4 d after administration: 93.11%
HL-60 cells [2]; 15 uM
  live cell rate at 4 d after administration: 89.06%
HL-60 cells [2]; 30 uM
  live cell rate at 4 d after administration: 75.36%
HL-60 cells [2]; 60 uM
  live cell rate at 4 d after administration: 60.06%
HL-60 cells [2]; 120 uM
  live cell rate at 4 d after administration: 43.11%
